Measurements reported in PubChem BioAssay AID1963841 (Molecular Pharmacology Branch, DTP, NCI, 2024).

Test system: 439559-082-T-J2-PDC spheroid viability
Test: Anticancer human tumor 439559-082-T-J2-PDC patient-derived colon adenocarcinoma cell line growth inhibition [POLQ]
Conditions: spheroids with HUVEC and MSC; for IC50: curve of first compound; for viability, T/C: stronger effect = lower value
Summary of the method: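 Growth inhibition in 3D: complex spheroids (tumor PDC, HUVEC, MSC) treated with POLQ inhibitor combinations; where Cmax unknown, highest tested concentration 10 microM, except SN-38 at 1 microM.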
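Note: spheroids exposed to compounds for seven days before readout.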
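Throughout, for viability, T/C: 100% = DMSO vehicle control viability.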

For C=CCn1c(=O)c2cnc(Nc3ccc(N4CCN(C)CC4)cc3)nc2n1-c1cccc(C(C)(C)O)n1 + Nc1ccc(C#CCN(C(=O)Cc2ncc(C(F)(F)F)cc2C(F)(F)F)c2ccc(F)cc2)nn1, the IC50 (second compound 0.0316 µM) was > 1000 nM, the IC50 (second compound 0.1 µM) was > 1000 nM and the IC50 (second compound 0.316 µM) was > 1000 nM. For the same molecule, the IC50 (second compound 1 µM) was > 1000 nM, the IC50 (second compound 3.16 µM) was > 1000 nM and the IC50 (second compound 10 µM) was > 1000 nM. The viability, T/C (second compound 0.0316 µM, first compound 0.00316 µM) was 111%, the viability, T/C (second compound 0.0316 µM, first compound 0.01 µM) was 109% and the viability, T/C (second compound 0.0316 µM, first compound 0.0316 µM) was 109%. The viability, T/C (second compound 0.0316 µM, first compound 0.1 µM) was 105%, the viability, T/C (second compound 0.0316 µM, first compound 0.316 µM) was 97.5% and the viability, T/C (second compound 0.0316 µM, first compound 1 µM) was 84.7%. It also gave a viability, T/C (second compound 0.1 µM, first compound 0.00316 µM) of 108%, a viability, T/C (second compound 0.1 µM, first compound 0.01 µM) of 94.4% and a viability, T/C (second compound 0.1 µM, first compound 0.0316 µM) of 100%. The viability, T/C (second compound 0.1 µM, first compound 0.1 µM) was 95.5%, the viability, T/C (second compound 0.1 µM, first compound 0.316 µM) was 97.9% and the viability, T/C (second compound 0.1 µM, first compound 1 µM) was 78.6%. For the same molecule, the viability, T/C (second compound 0.316 µM, first compound 0.00316 µM) was 108%, the viability, T/C (second compound 0.316 µM, first compound 0.01 µM) was 115% and the viability, T/C (second compound 0.316 µM, first compound 0.0316 µM) was 97.3%. It also gave a viability, T/C (second compound 0.316 µM, first compound 0.1 µM) of 99.1%, a viability, T/C (second compound 0.316 µM, first compound 0.316 µM) of 97.5% and a viability, T/C (second compound 0.316 µM, first compound 1 µM) of 84%. The viability, T/C (second compound 1 µM, first compound 0.00316 µM) was 105%, the viability, T/C (second compound 1 µM, first compound 0.01 µM) was 102% and the viability, T/C (second compound 1 µM, first compound 0.0316 µM) was 98.4%. It also gave a viability, T/C (second compound 1 µM, first compound 0.1 µM) of 101%, a viability, T/C (second compound 1 µM, first compound 0.316 µM) of 103% and a viability, T/C (second compound 1 µM, first compound 1 µM) of 78.7%. For the same molecule, the viability, T/C (second compound 3.16 µM, first compound 0.00316 µM) was 99.6%, the viability, T/C (second compound 3.16 µM, first compound 0.01 µM) was 107% and the viability, T/C (second compound 3.16 µM, first compound 0.0316 µM) was 98.8%. It also gave a viability, T/C (second compound 3.16 µM, first compound 0.1 µM) of 99.4%, a viability, T/C (second compound 3.16 µM, first compound 0.316 µM) of 89.5% and a viability, T/C (second compound 3.16 µM, first compound 1 µM) of 79.3%. The viability, T/C (second compound 10 µM, first compound 0.00316 µM) was 105%, the viability, T/C (second compound 10 µM, first compound 0.01 µM) was 109% and the viability, T/C (second compound 10 µM, first compound 0.0316 µM) was 103%. For the same molecule, the viability, T/C (second compound 10 µM, first compound 0.1 µM) was 105%, the viability, T/C (second compound 10 µM, first compound 0.316 µM) was 99.9% and the viability, T/C (second compound 10 µM, first compound 1 µM) was 71.2%.
